No end group written: not given here.
Experiments:
T cells (spleen cells) [1] = test: T cell growth stimulating activity in spleen cells of mice immunized with egg lysozyme; assay type: cell-based, BALB/c mice; settings: egg lysozyme 3 μg/ml plus phage 1 μg/ml added separately, W. T. phage as negative control, FIG. 8
From the text: In Example 6, there were used a phage protein as a primary antigen stimulation and the phage protein with expressed F2 or F6 sequence as a secondary stimulation in vitro. That is, in Example 6, a phage protein was used as an antigen and a secondary stimulation was made in a condition where both said antigen and F2 or F6 sequence are on the same particle. In this Example, however, the activity to stimulate the growth of T cells of phages expressing F2 or F6 as described in Example 6 was investigated wherein an antigen irrelevant to the phage (egg lysozyme) was used as a primary antigen stimulation and the egg lysozyme plus the phage particles expressing F2 or F6 sequence were separately added as a secondary stimulation.
Egg lysozyme 10 μg (100 μl/Freund's incomplete adjuvant (FIA)) was subcutaneously injected to BALB/c mice. Four weeks after administration, spleen cells and the relevant lymph nodes were removed from each mouse in a usual manner. Each well of 96-well culture plate was added with the spleen cells at 1.5×10^5 cells/well and with egg lysozyme at 3 μg/ml. Phages expressing F2 or F6 sequence were added at 1 μg/ml either at the same time, 1 day after, or 2 days after, the addition of egg lysozyme. As a negative control, W. T. phage was added. Measurement after culture was as described in Example 6.

[2] = test system: anti-mouse CTLA-4 monoclonal antibody; test: ELISA: reactivity of plate-coated phage clones with the anti-mouse CTLA-4 monoclonal antibody; assay type: binding, hamster; settings: phage 4x10^9 virions/well, antibody 200 ng/ml, FIG. 2 and 3
Method: The obtained 58 phage clones were subjected to primary screening with ELISA. A 96 well ELISA plate (Sumitomo Bakelite, Tokyo) was coated with each phage (4×10^9 virions/well/40 μl) purified as described by Smith et al. (G. P. Smith, Method in Enzymology, Vol. 217, p.228-257 (1993), Academic Press) at 4° C. overnight. The plate was washed with TBST and was blocked with 100 μl/well of 50 mM Tris-HCl, pH 7.5, 150 mM NaCl supplemented with 0.02% NaN3 and 1% BSA at room temperature for 2 hours. After washing with TBST, the plate was added with the anti-mouse CTLA-4 monoclonal antibody (200 ng/ml/well/100 μl) and reacted at room temperature for 1 hour. After washing with TBST; the plate was reacted with anti-hamster IgG antibody (Zymet, California) labeled with alkaline phosphatase diluted to 250-fold with TBS at room temperature for 1 hour. After washing, the plate was added with the substrate sodium p-nitrophenylphosphate hexahydrate (Wako Junyaku, Osaka) was added and absorbance at 405 nm was measured.
Whether each of the motifs as shown in Example 4 specifically binds to the anti-mouse CTLA-4 monoclonal antibody was investigated. A degree of specificity was determined by ELISA as described in Example 3. As a negative control, anti-mouse CD28 antibody (Phamingen, San Diego), having the same isotype with the anti-mouse CTLA-4 monoclonal antibody, and hamster IgG were used. Anti-hamster IgG antibody was used as a detection antibody. […] E. coli producing the phage expressing F2 sequence and the phage expressing F6 sequence have been deposited by the applicant in accordance with the Budapest Treaty as Escherichia coli F2 [FERM BP-6009] and as Escherichia coli F6 [FERM BP-60103], respectively, at National Institute of Bioscience and Human-Technology Agency of Industrial Science and Technology, 1-3, Higashi 1-chome, Tsukuba-shi, Ibaraki-ken, 305, Japan, on Apr. 14, 1997 (original deposition date: transferred from FERM P-16192 and FERM P-16193, respectively, to the deposition under the Budapest Treaty on Jul. 4, 1997).

[3] = test system: anti-HBsAg antibody production; test: Anti-HBsAg antibody production in mice immunized with yHBsAg together with phages; assay type: in vivo, BALB/c mice; settings: i.p. yHBsAg 10 μg with phage, boost at 15 days, blood three weeks after immunization, FIG. 11
Method: BALB/c mice (four animals per group) were administered intraperitoneally with either 10 μg (100 μl/PBS) of recombinant HBsAg produced in yeast (yHBsAg; Juridical Foundation The Chemo-Sero-Therapeutic Research Institute) alone or in combination with phages expressing F2 or F6 (10: pg/100 μl). Fifteen days after primary immunization, th-e same samples were administered intraperitoneally., Three weeks after primary immunization, each mouse was bled. Serum was diluted with PBS-to 50-fold, 200-fold and 800-fold and then anti-HBsAg antibody titer was measured with Ausab EIA kit (Abbott Laboratories).
The antibody titer was measured using a positive control attached to the kit as a standard.

T cells (spleen cells) [4] = test: Effect of CD80-Ig or CD86-Ig on the T cell growth stimulating activity of the phages; assay type: cell-based, BALB/c mice; settings: phage 1 μg/ml, egg lysozyme 3 μg/ml; for effect of CD80-Ig on T cell growth stimulating activity: CD80-Ig 0-1 μg/ml, FIG. 9 and 10
Method: Each phage expressing F2 or F6 sequence reacted with anti-mouse CTLA-4 monoclonal antibody as shown in Example 5. Phage expressing F2 specifically bound to mouse CD80-Ig as shown in Example 7.
Egg lysozyme 50 μg (100 μl/PBS) was intraperitoneally administered to BALB/c mice. Four weeks after administration, spleen cells were removed from each mouse in a usual manner. In this Example, to each well of a 96-well culture plate were added the spleen cells at 1.5×10^5 cells/well and egg lysozyme at 3 μg/ml together with phage expressing F2 or F6 (1 μg/ml) and CD80-Ig or CD86-Ig or human Ig as a negative control at 0-1 μg/ml. The T cell growth stimulating activity was determined as described in Example 6.

mouse CD80-Ig = target: T1, mouse CD80-Ig (Mus musculus, UniProt Q00609); test: ELISA: binding of plate-coated phages to mouse CD80-Ig; settings: for binding to mouse CD80-Ig: ELISA, 200 to 1000 ng/35 μl mouse CD80-Ig, FIG. 5
T1 construct: Ig (immunoglobulin fusion partner); made in house; host or cells: COS7 cells (pCDM8 plasmid), purified on Protein A Sepharose
T1 sequence (Q00609 38-246 limits assumed): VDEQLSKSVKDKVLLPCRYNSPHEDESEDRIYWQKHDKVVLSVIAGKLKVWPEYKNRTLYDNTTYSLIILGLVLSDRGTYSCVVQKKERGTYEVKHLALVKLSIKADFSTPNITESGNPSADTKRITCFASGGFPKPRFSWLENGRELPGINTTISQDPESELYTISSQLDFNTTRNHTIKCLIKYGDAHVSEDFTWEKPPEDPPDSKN
Method: (§1) The binding activity was measured by ELISA. A 96-well ELISA plate (Sumitomo Bakelite, Tokyo) was coated with phages expressing F2 or F6 sequence (4×10^9 virions/well/40 pi) at 4° C. overnight and then blocked with 50 mM Tris-HCl, pH 7.5, 150 mM NaCl (TBS) supplemented with 1% BSA at room temperature for 2 hours. After washing the plate with TBST, the plate was added with 200 to 1000 ng/35 μl of mouse CD80-Ig diluted with PBS and reacted at room temperature for 1 hour. After washing with TBST, the plate was reacted with alkali phosphatase-labeled anti-human IgG antibody (Zymet, California) diluted with TBS by 100-fold at room temperature for 1 hour. After washing, to the plate was added the substrate sodium p-nitrophenylphosphate hexahydrate and absorbance at 405 nm was measured.

human CD80-Ig = target: T2, human CD80-Ig (Homo sapiens, UniProt P33681); test: ELISA: binding of phage expressing F2 sequence to human CD80-Ig; settings: mouse CTLA-4-Ig and human IgG as negative control, FIG. 7
T2 construct: a fused gene of human CD80 extracellular domain and human Ig Cγl domain; made in house; host or cells: COS7 cells (pCDM8 plasmid, DEAE-dextran), purified on Protein A Sepharose
T2 sequence (P33681 35-242 limits assumed): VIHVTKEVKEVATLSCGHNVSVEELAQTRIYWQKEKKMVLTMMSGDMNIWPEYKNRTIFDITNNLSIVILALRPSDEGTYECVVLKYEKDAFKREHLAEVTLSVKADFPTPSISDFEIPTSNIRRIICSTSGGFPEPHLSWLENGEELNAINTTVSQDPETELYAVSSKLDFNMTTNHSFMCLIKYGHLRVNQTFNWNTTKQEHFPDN
Method: as §1
Then, whether phage expressing F2 sequence specifically binds to human CD80-Ig was investigated in this Example as described in Example 7, FIG. 5.
Human CD80-Ig was prepared by constructing a fused gene of human CD80 extracellular domain and human Ig Cγl domain as described by Linsley et al. (J. Exp. Med. Vol. 173, p.721-730 (1991)). An expression plasmid pCDM8 incorporating the fused gene fragment was introduced into COS7 cells by DEAE-dextran method. After culturing for 72 hours, human CD80-Ig was purified from culture supernatant with Protein A Sepharose (Pharmacia). […]

T cells (spleen cells) [5] = test: T cell growth, [3H]-thymidine take-up by spleen cells of mice primed with W. T. phage; assay type: cell-based, BALB/c mice; settings: phage 0.015 to 5 μg/ml, three days culture, FIG. 4
Method: BALB/c mice (6 weeks old; four animals per group) were used in an experiment and the phages were purified as described by Smith et al. (G. P. Smith, Method in Enzymology, Vol. 217, p.228-257 (1993), Academic Press). An amount of the phages was measured using protein assay kit (BioRad) with bovine serum albumin as a standard and expressed as a protein concentration.
First, for antigen, stimulation, BALB/c mice were administered intraperitoneally with 10 μg (200 μl/PBS) of phage (W. T.) not expressing pIII protein. Four weeks after the administration, spleen cells were removed from each mouse in the usual manner. The spleen cells were added to each well of 96-well culture plate at 1.5×10^5 cells/well. To each well was added purified W. T. or phages expressing any of F1 to F6 sequence at a final concentration of 0.015 to 5 μg/ml to make a total volume of 200 μl (RPMS 1640 medium containing 10% FCS) Triplicates were used for each sample. After incubating these samples on ice for 30 minutes, the cells were cultured under condition of 5% CO2 at 37° C. for three days. Eighteen hours before completion of culture, the cells were pulse-labeled with [^3H]-thymidine (0.5 μCi/well). The cells were harvested with a cell harvester and a take-up of [^3H]-thymidine was measured with a liquid scintillation counter.

mouse CTLA-4-Ig = target: T3, mouse CTLA-4-Ig (mouse, UniProt P09793 36-161); test: ELISA, F2 phage coated, reacted with mouse CD80-Ig, mouse CTLA-4-Ig and human IgG
T3 construct: also called CTLA-4-Ig chimeric molecule; not shown: Ig part of the chimera; not described for this construct

Molecule: APGVRLGCAVLGRYC (cysteine pairing not given here) [F6]
- T cell growth stimulating activity, egg lysozyme as antigen (T cells (spleen cells) [1]): exhibited the antigen-specific activity to stimulate the growth of T cells
- reactivity with anti-mouse CTLA-4 monoclonal antibody [2]: reacted most strongly
- anti-HBsAg antibody titer relative to group immunized with HBsAg alone (= 1) [3]: 11.9
- effect of CD80-Ig on T cell growth stimulating activity (T cells (spleen cells) [4]): did not inhibit
- effect of CD86-Ig on T cell growth stimulating activity (T cells (spleen cells) [4]; CD86-Ig 0-1 μg/ml, FIG. 10): did not inhibit
- binding to mouse CD80-Ig (mouse CD80-Ig): do not bind to CD80/CD86 molecules

Molecule: GFVCSGIFAVGVGRC (cysteine pairing not given here) [F2]
- T cell growth stimulating activity, egg lysozyme as antigen (T cells (spleen cells) [1]): exhibited the antigen-specific activity to stimulate the growth of T cells
- reactivity with anti-mouse CTLA-4 monoclonal antibody [2]: reacted most strongly
- anti-HBsAg antibody titer relative to group immunized with HBsAg alone (= 1) [3]: 17.9
- effect of CD80-Ig on T cell growth stimulating activity (T cells (spleen cells) [4]): greatly inhibited
- binding specificity to mouse CD80-Ig (mouse CD80-Ig; ELISA against mouse CD80-Ig, mouse CTLA-4-Ig and human IgG, FIG. 6): specifically reacted with mouse CD80-Ig
- binding to mouse CD80-Ig (mouse CD80-Ig): bound to mouse CD80-Ig in a concentration-dependent manner
- binding to human CD80-Ig (human CD80-Ig): specifically bound to human CD80-Ig

Molecule: GLHSRCHIGRDCSSA (cysteine pairing not given here) [F1]
- reactivity with anti-mouse CTLA-4 monoclonal antibody [2]: reacted weakly
- growth of T cells as compared to W. T. phage (T cells (spleen cells) [5]): approximately equivalent to that with W. T. phage

Molecule: HYGDCRYDLGSCRGA (cysteine pairing not given here) [F4]
- reactivity with anti-mouse CTLA-4 monoclonal antibody [2]: reacted weakly
- growth of T cells as compared to W. T. phage (T cells (spleen cells) [5]): approximately equivalent to that with W. T. phage

Molecule: SCVFHHSGRYWGRCV (cysteine pairing not given here) [F3]
- reactivity with anti-mouse CTLA-4 monoclonal antibody [2]: reacted more weakly
- growth of T cells as compared to W. T. phage (T cells (spleen cells) [5]): approximately equivalent to that with W. T. phage

B1: phage expressing F2 sequence (peptide)
chain: ADGAGFVCSGIFAVGVGRCGAAGAETVESCLAKPHTENSFTNVWKDDKTLDRYANYEGCLWNATGVVVCTGDETQCYGTWVPIGLAIPENEGGGSEGGGSEGGGSEGGGTKPPEYGDTPIPGYTYINPLDGTYPPGTEQNPANPNPSLEESQPLNTFMFQNNRFRNRQGALTVYTGTVTQGTDPVKTYYQYTPVSSKAMYDAYWNGKFRDCAFHSGFNEDPFVCEYQGQSSDLPQPPVNAGGGSGGGSGGGSEGGGSEGGGSEGGGSEGGGSGGGSGSGDFDYEKMANANKGAMTENADENALQSDAKGKLDSVATDYGAAIDGFIGDVSGLANGNGATGDFAGSNSQMAQVGDGDNSPLMNNFRQYLPSLPQSVECRPYVFGAGKPYEFSIDCDKINLFRGVFAFLLYVATFMYVFSTFANILRNKES
notes: also called F2 phage
- binding result (mouse CTLA-4-Ig): no binding

From US6429286B1, “Immunoregulatory molecules for costimulatory signal transduction” (priority 1997, dated 2002)
